Test results published in patent publication US4299813A, “Assay kit and method” (priority 1979, dated 1981).
Several values for one entry are separate records, joined by “and”; a condition that tells them apart may be missing. Identical values can stand only once.

System: muscarinic cholinergic receptor
Experiment: Muscarinic cholinergic radioreceptor assay ([3H] QNB competition, serum antidepressant levels)
Format: binding, rat (Sprague-Dawley)
[1] = Standard C, 5.0 μM amitriptyline, Table II
[2] = Standard D, 1.0 μM amitriptyline, Table II
[3] = Standard E, 0.2 μM amitriptyline, Table II
[4] = Standard C, 50 μM imipramine, Table III
[5] = Standard D, 10 μM imipramine, Table III
[6] = Standard E, 2 μM imipramine, Table III

CN(C)CCC=C1c2ccccc2CCc2ccccc21 [amitriptyline]
CPM (Sample 1, serum, Table II): 2537 CPM and 2867 CPM | Logit (B/Bo) (Sample 1, serum, Table II): -0.644 and -0.562 | CPM (Sample 2, serum, Table II): 7735 CPM and 7778 CPM and 7386 CPM | Logit (B/Bo) (Sample 2, serum, Table II): 0.288 and 0.295 and 0.227 | CPM (Standard A, 10^-5 M amitriptyline (background), Table II): 533 CPM and 529 CPM and 479 CPM | CPM (Standard A, 10^-5 M amitriptyline (background), imipramine curve, Table III): 533 CPM and 529 CPM and 479 CPM | CPM [1]: 1914 CPM and 1790 CPM and 1679 CPM | Logit (B/Bo) [1]: -0.834 and -0.879 and -0.924 | CPM [2]: 5285 CPM and 5442 CPM and 5239 CPM | Logit (B/Bo) [2]: -0.112 and -0.087 and -0.119 | CPM [3]: 9240 CPM and 9692 CPM | Logit (B/Bo) [3]: 0.595 and 0.716 | CPM (Standard F, 0.04 μM amitriptyline, Table II): 11235 CPM

CN(C)CCCN1c2ccccc2CCc2ccccc21 [imipramine]
CPM (Sample 1, serum, Table III): 7105 CPM and 7146 CPM and 6773 CPM | Logit (B/Bo) (Sample 1, serum, Table III): 0.180 and 0.187 and 0.125 | CPM (Sample 2, serum, Table III): 9642 CPM and 8636 CPM and 8069 CPM | CPM [4]: 4922 CPM and 4908 CPM and 4803 CPM | Logit (B/Bo) [4]: -0.171 and -0.173 and -0.191 | CPM [5]: 8706 CPM and 8704 CPM and 8799 CPM | Logit (B/Bo) [5]: 0.473 and 0.493 | CPM [6]: 10370 CPM and 10617 CPM and 10843 CPM | Logit (B/Bo) [6]: 0.957 and 1.079 and 1.224
